Experimental data from patent publication US20150038545A1, “HYDROXYPHENYL PYRROLE COMPOUNDS CONTAINING AN HYDROXAMIC ACID AS HDAC INHIBITORS AND MEDICINAL APPLICATIONS THEREOF” (UNIVERSIDAD DEL PAÍS VASCO, priority 2011, published 2015).

Experiments:
Human HDAC4 = molecular target: T1, Human HDAC4 (Homo sapiens, UniProt P56524); assay: In vitro HDAC4 inhibition, fluorogenic peptide assay; type: biochemical; settings: for IC50: read-out: IC50 (nM) of enzyme activity HDAC4
T1 construct: Amino acids 627-1085 with N-terminal GST tag, MW=75.2 kDa; GST (N); purchased BioMol, Hamburg, Germany
Experimental: All HDAC assays were performed using acetylated AMC-labeled peptide substrate: • Substrate for isoforms HDAC1, 2, 3, 4, 5, 6, 7, 9, 10, 11 and HeLa nuclear extract assays: Acetylated fluorogenic peptide from p53 residues 379-382 (RHKKAc) (BioMol. Cat. # KI-104). • Substrate for HDAC8 assays: Acetylated fluorogenic peptide from p53 residues 379-382 (RHKAcKAc) (BioMol. Cat. # KI-178).
Enzymes: • HDAC1 assay: 75 nM Human HDAC1 (GenBank Accession No. NM_004964): Full length with C-terminal GST tag, MW=79.9 kDa, expressed by baculovirus expression system in Sf9 cells (BioMol. Cat. # SE-456). • HDAC2 assay: 5 nM Human HDAC2 (GenBank Accession No. Q92769): Full length with C-terminal His tag, MW=60 kDa, expressed by baculovirus expression system in Sf9 cells (BioMol. Cat. # SE-500). • HDAC3 assay: 2.3 nM Human HDAC3/NcoR2 (GenBank Accession No. NM_003883 for HDAC3, GenBank Accession No.NM_006312 for NcoR2): Complex of human HDAC3, full length with C-terminal His tag, MW=49.7 kDa, and human NCOR2, N-terminal GST tag, MW=39 kDa, co-expressed in baculovirus expression system (BioMol. Cat. # SE-507). • HDAC4 assay: 266 nM Human HDAC4 (GenBank Accession No. NM_006037): Amino acids 627-1085 with N-terminal GST tag, MW=75.2 kDa, expressed in baculovirus expression system (BioMol, Hamburg, Germany). • HDAC5 assay: 588 nM Human HDAC5 (GenBank Accession No. NM_001015053): Full length with Nterminal GST tag, MW=150 kDa, expressed by baculovirus expression system in Sf9 cells (BioMol, Hamburg, Germany). • HDAC6 assay: 13 nM Human HDAC6 (GenBank Accession No. BC069243): Full length with N-terminal GST tag, MW=159 kDa, expressed by baculovirus expression system in Sf9 cells (BioMol. Cat. # SE-508). • HDAC7 assay: 962 nM Human HDAC7 (GenBank Accession No. AY302468): Amino acids 518-end with N-terminal GST tag, MW=78 kDa, expressed in baculovirus expression system (BioMol, Hamburg, Germany). • HDAC8 assay: 119 nM Human HDAC8 (GenBank Accession No. NM018486): Full length, MW=42 kDa, expressed in an E. coli expression system (BioMol. […]
The reactions were carried out in a 96-well microplate for fluorometry in a 50 μl reaction volume. […] The reaction was allowed to develop for 45 minutes at 30° C. with 5% CO2; then the fluorescent signal was measured with an excitation wavelength at 360 nm and an emission wavelength at 460 nm in a microplate-reading fluorometer (GeminiXS; Molecular Devices, Sunnyvale, Calif.). […] IC50 was calculated by fitting the experimental data to a dose-response curve. […]

A549 = assay: Cancer cell growth inhibition (CellTiter-Glo), A549; type: cell-based, Human; settings: Homo sapiens; Lung Cancer, A549, 72 h treatment
Experimental: Cell culture-based assays were used to evaluate the ability of compounds of the invention to inhibit cancer cell growth.
Cells were obtained from the American Type Culture Collection (ATCC). Cells were cultured at 37° C. with 5% CO2 in the appropriate growth medium (see table below), and harvested respectively during the logarithmic growth period and counted with hemocytometer. The cell viability was examined by trypan blue exclusion. Cell concentrations were adjusted to 5.56×10^4 cells/ml with respective medium.
Stock solutions of test compounds and positive drugs Doxorubicin (Zhejiang, Haizheng, China), Cisplatin (Nanjing Zhiyao, China) and Mitomycin (Zhejiang, Haizheng, China) were prepared in dimethyl sulphoxide (DMSO) or PBS at 20 mM.
In order to determine the IC50 for each compound, experiments were carried out in 96-well plates and the cell lines seeded at a density of 5,000 cells/well. […] All treatments were performed in triplicate. 10 μl of drug solution was added to each well and incubated for 72 hours. At the end of the incubation, 100 μl of the CellTiter-Glo Reagent were added to each well and the contents were mixed for 2 munites on an orbital shaker to induce cell lysis. The plate was incubated at room temperature for 10 minutes to stabilize luminiscent signal, and luminiscent was recorded. […] In order to calculate IC50 values, dose-responsive curves were fitted using nonlinear regression model with a sigmoidal dose response.

T1 sequence (P56524 627-1084 limits assumed): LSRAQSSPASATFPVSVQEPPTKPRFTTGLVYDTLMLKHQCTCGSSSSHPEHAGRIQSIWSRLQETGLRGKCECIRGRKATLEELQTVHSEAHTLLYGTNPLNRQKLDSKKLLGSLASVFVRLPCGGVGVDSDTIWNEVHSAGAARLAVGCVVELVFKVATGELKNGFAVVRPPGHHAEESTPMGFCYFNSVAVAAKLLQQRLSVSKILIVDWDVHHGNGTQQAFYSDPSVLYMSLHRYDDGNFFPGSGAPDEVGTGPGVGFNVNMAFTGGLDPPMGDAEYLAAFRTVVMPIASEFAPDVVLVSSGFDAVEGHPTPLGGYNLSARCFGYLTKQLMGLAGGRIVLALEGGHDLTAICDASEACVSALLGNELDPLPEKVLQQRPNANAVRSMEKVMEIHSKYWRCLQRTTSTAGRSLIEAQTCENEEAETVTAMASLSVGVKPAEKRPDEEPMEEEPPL

With COc1ccc(-c2cc(-c3ccccc3)[nH]c2C(=O)NCCCCCC(=O)NO)cc1 [Compound A, N-[6-(hydroxyamino)-6-oxohexyl]-3-(4-methoxyphenyl)-5-phenyl-1H-pyrrole-2-carboxamide, reference compound] the “Selectivity against HDAC6 (IC50 HDACx/IC50 HDAC6) HDAC4” value (Human HDAC4; IC50 HDAC4/IC50 HDAC6) was 91.9 and the IC50 (Human HDAC4) was 1840 nM.

An IC50 (A549) of 8.25 µM was found for O=C(CCCCCNC(=O)c1[nH]c(-c2ccc(O)cc2)cc1-c1ccccc1)NO [Example 2, N-(6-(hydroxyamino)-6-oxohexyl)-5-(4-hydroxyphenyl)-3-phenyl-1H-pyrrole-2-carboxamide] in this work.

An IC50 (A549) of 4.65 µM was found for O=C(CCCCCNC(=O)c1[nH]c(-c2ccccc2)cc1-c1ccc(O)cc1)NO [Example 1, N-(6-(hydroxyamino)-6-oxohexyl)-3-(4-hydroxyphenyl)-5-phenyl-1H-pyrrole-2-carboxamide] in this work.

An IC50 (Human HDAC4) of 499 nM and an IC50 (A549) of 5.39 µM were found for O=C(CCCCCNC(=O)c1[nH]c(-c2ccc(O)cc2)cc1-c1ccsc1)NO [Example 6, N-(5-(hydroxycarbamoyl)pentyl)-5-(4-hydroxyphenyl)-3-(3-thienyl)-1H-pyrrole-2-carboxamide] in this work.

An IC50 (Human HDAC4) of 143 nM and an IC50 (A549) of 4.35 µM were found for O=C(CCCCCNC(=O)c1[nH]c(-c2ccc(O)cc2)cc1-c1ccoc1)NO [Example 5, 3-(3-furyl)-N-(5-(hydroxycarbamoyl)pentyl)-5-(4-hydroxy-phenyl)-1H-pyrrole-2-carboxamide] in this work.
